We go through 2 compounds from publication PMC3017236 (Clinical cancer research : an official journal of the …, 2010).

The target in one data set is human ABCB1 (P-gp/MDR1) (Homo sapiens, UniProt P08183). The data set is described as follows: Intracellular accumulation in LLCPK1-MDR1 cells vs LLCPK1 cells.
Another data set has as its system Bcrp1/Abcg2. The note with it: mouse, in vivo.
The conditions of data set [1]: mouse, in vivo.
For a further data set, the system named is Mrp4/Abcc4. Kind of data set: Brain microdialysis. As to conditions: Abcc4−/− mice, 50 mg/kg oral erlotinib, mean ± SD.
Data set [2] deals with P-gp (Mdr1a/b) and Bcrp1/Abcg2. The data set is described as follows: in vivo. The note with it: mouse, brain ECF (relative to unbound plasma), po, 50 mg/kg.
The nature of a further data set: in vitro. As to conditions: mouse, plasma.

Entries after “also recorded” stand apart in the source; their conditions may differ.

Chain of human ABCB1 (P-gp/MDR1) (P08183 whole entry): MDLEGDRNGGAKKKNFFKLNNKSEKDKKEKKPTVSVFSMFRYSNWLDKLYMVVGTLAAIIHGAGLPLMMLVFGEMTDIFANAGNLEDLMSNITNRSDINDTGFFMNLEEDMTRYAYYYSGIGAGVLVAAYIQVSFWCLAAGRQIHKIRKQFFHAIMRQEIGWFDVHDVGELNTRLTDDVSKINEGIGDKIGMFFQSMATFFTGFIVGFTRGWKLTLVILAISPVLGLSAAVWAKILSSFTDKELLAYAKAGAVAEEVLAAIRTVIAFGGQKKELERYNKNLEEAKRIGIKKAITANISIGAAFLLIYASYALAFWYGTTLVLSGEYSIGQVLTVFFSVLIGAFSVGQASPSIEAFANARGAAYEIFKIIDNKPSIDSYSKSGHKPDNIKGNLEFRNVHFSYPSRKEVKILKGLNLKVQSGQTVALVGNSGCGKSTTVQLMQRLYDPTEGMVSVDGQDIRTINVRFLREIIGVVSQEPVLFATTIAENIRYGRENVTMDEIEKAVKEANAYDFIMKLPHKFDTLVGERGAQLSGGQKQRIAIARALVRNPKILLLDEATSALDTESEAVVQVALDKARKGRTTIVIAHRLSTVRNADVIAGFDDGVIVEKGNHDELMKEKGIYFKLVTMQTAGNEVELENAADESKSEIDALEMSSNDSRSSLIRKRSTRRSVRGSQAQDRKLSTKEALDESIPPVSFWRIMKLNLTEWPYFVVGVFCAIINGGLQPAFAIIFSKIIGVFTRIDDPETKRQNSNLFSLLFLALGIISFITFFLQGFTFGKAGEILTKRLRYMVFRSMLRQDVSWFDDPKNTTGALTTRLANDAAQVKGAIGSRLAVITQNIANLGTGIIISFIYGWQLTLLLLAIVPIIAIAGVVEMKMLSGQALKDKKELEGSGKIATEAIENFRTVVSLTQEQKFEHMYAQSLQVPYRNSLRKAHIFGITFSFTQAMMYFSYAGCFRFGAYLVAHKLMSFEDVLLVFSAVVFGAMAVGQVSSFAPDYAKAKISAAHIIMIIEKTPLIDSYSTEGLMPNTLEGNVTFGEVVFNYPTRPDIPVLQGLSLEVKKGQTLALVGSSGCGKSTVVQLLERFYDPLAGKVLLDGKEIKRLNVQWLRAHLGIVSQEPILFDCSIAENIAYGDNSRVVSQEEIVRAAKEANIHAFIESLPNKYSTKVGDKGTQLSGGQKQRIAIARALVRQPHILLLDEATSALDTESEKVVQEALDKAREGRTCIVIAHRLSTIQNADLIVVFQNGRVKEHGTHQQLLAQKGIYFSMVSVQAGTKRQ

In the case of `C#Cc1cccc(Nc2ncnc3cc(OCCOC)c(OCCO)cc23)c1` [OSI-420], the “Effect of elacridar on intracellular accumulation” value at human ABCB1 (P-gp/MDR1) (LLCPK1-MDR1 cells, pre-incubation 30 minutes with elacridar (4 μM)) is given as “significantly increased”. For the same compound, the “Intracellular accumulation vs control cells” value on human ABCB1 (P-gp/MDR1) (LLCPK1-MDR1 vs LLCPK1, 0.5 μg/mL, 37°C) is given as “lower accumulation; also recorded: significantly reduced”. Moreover, the “Brain penetration relative to wild-type mice” value with Bcrp1/Abcg2 was 7 fold. The “Penetration of unbound drug from plasma across the BBB” value in data set [1] is listed as 7%. For the same compound, the “PBrain (brain ECF-to-unbound plasma AUC0-24 ratio)” value is given as 0.07±0.02 in data set [1] (po, 50 mg/kg) and 0.08 ± 0.06 in the data set on Mrp4/Abcc4.

Consider `C#Cc1cccc(Nc2ncnc3cc(OCCOC)c(OCCOC)cc23)c1` [erlotinib, Erlotinib], for which the Kp in data set [2] is 0.7 ± 0.26. Besides, the fraction unbound at 10 h in the data set “in vitro” was 0.048.
